Data reported in PMC10175918 (Communications Biology, 2023).
Where “and” joins values, the source holds several entries; their conditions need not be identical. Equal entries are not always repeated.

Legend:
UTS2R T304A = experiment: TGFα-shedding assay on UTS2R mutant T304A; format: cell-based, human; settings: cutoff value set to −1, single replicates
UTS2R T304V = experiment: TGFα-shedding assay on UTS2R mutant T304V; format: cell-based, human; settings: cutoff value set to −1, single replicates
UTS2R M134A = experiment: TGFα-shedding assay on UTS2R mutant M134A; format: cell-based, human; settings: cutoff value set to −1, single replicates
UTS2R M134T = experiment: TGFα-shedding assay on UTS2R mutant M134T; format: cell-based, human; settings: cutoff value set to −1, single replicates
UTS2R G68C = experiment: TGFα-shedding assay on UTS2R SNV mutant G68C; format: cell-based, human; settings: cutoff value set to −1, single replicates
UTS2R V159M = experiment: TGFα-shedding assay on UTS2R SNV mutant V159M; format: cell-based, human; settings: cutoff value set to −1, single replicates
UTS2R A249G = experiment: TGFα-shedding assay on UTS2R SNV mutant A249G; format: cell-based, human; settings: cutoff value set to −1, single replicates
FLAG-UTS2R = target: T1, FLAG-UTS2R (Homo sapiens, UniProt Q9UKP6); experiment: Competitive binding assay: biotin-UT2 pulldown of FLAG-UTS2R from HEK293 membrane fraction; settings: membrane fraction of HEK293 cells expressing FLAG-UTS2R, streptavidin beads, western blot
T1 construct: expressed in transfected cells; host or cells: HEK293
T1 sequence (Q9UKP6 whole entry): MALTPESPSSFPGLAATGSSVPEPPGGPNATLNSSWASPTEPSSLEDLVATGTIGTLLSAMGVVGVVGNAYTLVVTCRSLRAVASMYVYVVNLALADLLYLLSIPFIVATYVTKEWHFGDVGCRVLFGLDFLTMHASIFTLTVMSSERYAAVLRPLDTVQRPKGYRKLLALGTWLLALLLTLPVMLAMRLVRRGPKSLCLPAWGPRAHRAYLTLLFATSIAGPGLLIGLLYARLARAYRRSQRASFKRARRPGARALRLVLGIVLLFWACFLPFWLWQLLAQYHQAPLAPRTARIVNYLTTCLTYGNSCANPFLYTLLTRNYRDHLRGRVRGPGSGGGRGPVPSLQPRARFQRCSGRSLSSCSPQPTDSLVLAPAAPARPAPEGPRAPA
Experimental: HEK293 cells were transfected with the plasmid encoding FLAG-UTS2R and were serum-starved for 6 h before experimentation. Cells were washed twice with ice-cold PBS. Hypotonic solution (50 mM HEPES, pH 7.5 with protease inhibitor cocktails) was added to the cell plate, and the cells were harvested by scraping. Cells were homogenized using a dounce homogenizer (IKA EUROSTAR 20 digital) at 2,000 rpm for 20 strokes at 4 °C, and further homogenized using a tissue rupture (Qiagen) for 5 s at 4 °C. The homogenate was centrifuged at 800 x g for 10 min at 4 °C to remove unbroken cells and the nucleus. The supernatant was further centrifuged at 30,000×g for 30 min at 4° (CP80NX, himac). The resulting pellet was used as crude membrane fraction and was suspended in hyperosmotic solution (50 mM HEPES, pH 7.5, 250 mM NaCl, 2 mM EDTA with protease inhibitor).
The biotin-UT2-bound UTS2R complex was solubilized using a hyperosmotic buffer containing detergent (N-Dodecyl-β-D-maltopyranoside; DDM, 5× CMC) and pulled down using streptavidin magnetic beads. The suitable beads for the experiment were selected from 5 types (Supplementary Fig. 1d, Dynabeads Streptavidin Trial Kit, Thermo Fisher, and Streptavidin magnetic beads, NEB) and denatured with SDS buffer. […]

[1] = test system: human induced pluripotent stem cell-derived cardiomyocytes (hiPSC-CMs); experiment: Field potential recording (MEA) in hiPSC-CMs; format: cell-based; settings: for prolonged FPD: 1 µM remdesivir; for FPD delay: remdesivir with UTS2R antagonist (urantide)
Experimental: Human induced pluripotent stem cell-derived cardiomyocytes (hiPSC-CMs) were purchased from Fujifilm Cellular Dynamics, Inc. (CDI; iCell cardiomyocytes 2.0). To prepare the probe (MED-PG515A, Alpha MED Sciences), the recording areas were coated with fibronectin and dissolved in Dulbecco’s phosphate-buffered saline to create a 50 µg/mL solution. The recording area was covered with 1–2 µL fibronectin solution, and the probes were incubated at 37 °C for at least 1 h. Cells were thawed and suspended in iCell Cardiomyocytes Plating Medium (CDI) and plated onto the probes at a density of 3.5×10^4 cells in a 2 µL plating medium. The cells were incubated at 37 °C in 5% CO2 for 3–4 h before filling each probe with 1 mL iCell cardiomyocytes maintenance medium (CDI), which was used as the culture medium. The medium was changed every 2–3 days, with the cells cultured in the probes for 5–14 days to obtain a sheet of cardiomyocytes with spontaneous and synchronous electrical activity.
FP recording was carried out[35],[60]. Before measuring FPs, iCell cardiomyocyte sheets were equilibrated for at least 4 h in a fresh culture medium using a 5% CO2 incubator at 37 °C. After equilibration, the probes were transferred to the multi-electrode array (MEA) system (MED64, Alpha med Scientific) and incubated in a humidified 5% CO2 atmosphere. The stability and constancy of the waveforms were confirmed by monitoring the signals for at least 30 min. Once the FPs reached a stable state, they were recorded for 10 min at the baseline and then 24, 48, and 72 h after drug treatment. The stock solutions of drugs were prepared in dimethyl sulfoxide (DMSO) or distilled water at a 1000-fold target concentration. The stock solution was diluted in a culture medium to a final concentration of 0.1% DMSO.
The FP duration (FPD) was defined as the duration from the first to the second peak in FP[35]. The FPD was corrected for the beat rate (inter-spike interval (ISI)) with Fridericia’s formula (Eq. 1), which was the primary method of correction in this study:1 (FPDcF=FPD/(ISI/1000)^1/3).

[2] = test system: adult mouse cardiomyocytes; experiment: Contractility under pacing of adult mouse cardiomyocytes; format: cell-based; settings: 10 µM remdesivir, 30 min
Experimental: C57BL/6J mice for the isolation of adult mouse cardiomyocytes were purchased from Japan SLC Inc. (Shizuoka, Japan). Isolation of adult mouse ventricular cardiomyocytes was performed. Male mice were anesthetized by inhalation with isoflurane. The heart was quickly excised, and the aorta was clamped with a small vascular clamp. The heart was antegradely perfused with isolation buffer (less than 3 mL) containing 130 mM NaCl, 5.4 mM KCl, 0.5 mM MgCl2, 0.33 mM NaH2PO4, 25 mM HEPES, 22 mM glucose, and 50 μU/mL bovine insulin (Sigma) (pH 7.4, adjusted with NaOH) supplemented with 0.4 mM EGTA, followed by the perfusion of enzyme solution (10 mL) (isolation buffer containing 1 mg/mL collagenase type 2 (Worthington), 0.06 mg/mL trypsin (Sigma), 0.06 mg/mL protease (Sigma), and 0.3 mM CaCl2). Thereafter, the LV chamber was removed and cut into small pieces in an enzyme solution containing 0.2% bovine serum albumin (BSA) and 0.7 mM CaCl2. The tissue-cell suspension was filtered through a cell strainer (100 μm, Falcon) and centrifuged for 3 min at 50×g. After removing the supernatant, the cell pellet was resuspended in isolation buffer supplemented with 0.2% BSA and 1.2 mM CaCl2 and incubated for 7 min at 37 °C. […]
Microscopic images of cardiomyocytes were recorded for 13 seconds under pacing conditions. […] Imaging data were analyzed using Fiji software.

[3] = design: method as in earlier work; settings: intravenous injection, healthy adults; cited from earlier work

CCC(CC)COC(=O)[C@H](C)N[P@](=O)(OC[C@H]1O[C@@](C#N)(c2ccc3c(N)ncnn23)[C@H](O)[C@@H]1O)Oc1ccccc1 [remdesivir]
⊿pEC50 compared to WT UTS2R (UTS2R T304A): -1 | ⊿pEC50 compared to WT UTS2R (UTS2R T304V): -1 | ⊿pEC50 compared to WT UTS2R (UTS2R M134A): -1 | ⊿pEC50 compared to WT UTS2R (UTS2R M134T): -1 | ⊿pEC50 compared to WT UTS2R (UTS2R G68C): > 0.3 and 0.5256 and 0.7054 and 0.6735 and 0.5172 | ⊿pEC50 compared to WT UTS2R (UTS2R V159M): > 0.3 and 0.3136 and 0.3109 and 0.3308 and 0.4558 | ⊿pEC50 compared to WT UTS2R (UTS2R A249G): > 0.3 and 0.2782 and 0.2736 and 0.3671 and 0.2913 | biotin–UT2-mediated UTS2R pulldown (FLAG-UTS2R): significantly impaired | prolonged FPD ([1]; 24 h): 1.32 ± 1.38% | prolonged FPD ([1]; 48 h): 5.60 ± 1.60% | prolonged FPD ([1]; 72 h): 15.57 ± 3.49% | FPD delay ([1]; 24 h): −1.71 ± 1.60% | FPD delay ([1]; 48 h): −0.61 ± 0.11% | contraction of adult cardiomyocytes [2]: significantly impaired the contraction | maximum plasma concentration [3]: 9.03 µM
